# Results: PMC8309014, “Lactose-Gated Mesoporous Silica Particles for Intestinal Controlled Delivery of Essential Oil Components: An In Vitro and In Vivo Study” (Pharmaceutics, 2021)
# Columns and labels:
# in vivo = conditions: male, Wistar, rat, po
# Protocol: The EOC concentration in the aliquots of each specific section ((i) cargo release experiments, Section 2.6; (ii) EOCs permeability across the intestinal barriers, Section 2.13; and (iii) in vivo pharmacokinetic assays, Section 2.17) was analyzed by HPLC. For Thy and Eug molecules, the mobile phase used was ACN:H2O 50:50 v/v with 0.05% of TFA and absorbance detector using λex = 280 nm. For Cin, the mobile phase was ACN:H2O 85:15 v/v with 0.05% of TFA and λex = 254 nm. […] of volume injection were used and a flow of 1 mL/min was fixed. The methods were previously validated with adequate linearity, precision and accuracy (R > 0.99 and coefficient of variation < 5%).
# In vivo experiments with M41-Cin-L in a Wistar rat model were carried out in order to study the concentration of cinnamaldehyde, free and encapsulated, in plasma and in the different gastrointestinal sections. The animal study was approved by the Scientific Committee of the Faculty of Pharmacy Universidad Miguel Hernández, Elche (project reference DI-MBS-02-15) and followed the guidelines described in the EC Directive 86/609, the Council of the Europe Convention ETS 123 and Spanish national laws governing the use of animals in research (Real Decreto 223/1988, BOE 67, 18-3-98:8509-8511). […] The concentration of Cin in each sample was determined by HPLC following the methodology described in Section 2.7.
# MCP-1 = assay: Inflammatory response measurement: MCP-1 release in apical media; assay type: cell-based, Human; conditions: 24 h, EOC 200 μM free or in M41-EOC-L; LPS 10 μg/mL positive control
# Protocol: The Caco-2 cell epithelia were incubated in cell culture medium with each treatment, free EOCs (200 μM) and […] solids (concentration of particles corresponding to a 200 μM EOC-payload), during the time required to perform the assay: 90 min for EOCs permeability (see Section 2.13) and 24 h for the other interaction studies (Lucifer yellow, Section 2.14, and inflammatory response measurement, Section 2.15). In addition, some cell inserts were incubated with free medium at the same conditions as negative controls. TEER measurements were performed before and after each treatment to ascertain the validity of the membranes before the assay and to know the treatment's effect on them. Inflammatory cytokine and chemokine release (IL-8, MCP-1) was measured in the apical media from the enterocyte layers after 24 h of treatment with the corresponding […]-EOC-L and free EOCs. For the measurement, a Bio-Plex 1 MAGPIX TM Multiplex Reader (Bio-Rad) was employed according to the manufacturer-described-procedure. The cells were stimulated with 10 μg/mL LPS as positive control.
SMILES,Tmax (in vivo) [h],half-life (in vivo) [h],MCP-1 levels in the apical compartment (MCP-1)
"O=C/C=C/c1ccccc1 [Cin, cinnamaldehyde]",0.75,1.36,–
"C=CCc1ccc(O)c(OC)c1 [Eug, eugenol]",–,–,increases its levels
